The target of the assay is T1, human adenosine A2B receptors (Homo sapiens, UniProt P29275).
T1 construct: expressed in transfected cells
T1 sequence (P29275 1-332): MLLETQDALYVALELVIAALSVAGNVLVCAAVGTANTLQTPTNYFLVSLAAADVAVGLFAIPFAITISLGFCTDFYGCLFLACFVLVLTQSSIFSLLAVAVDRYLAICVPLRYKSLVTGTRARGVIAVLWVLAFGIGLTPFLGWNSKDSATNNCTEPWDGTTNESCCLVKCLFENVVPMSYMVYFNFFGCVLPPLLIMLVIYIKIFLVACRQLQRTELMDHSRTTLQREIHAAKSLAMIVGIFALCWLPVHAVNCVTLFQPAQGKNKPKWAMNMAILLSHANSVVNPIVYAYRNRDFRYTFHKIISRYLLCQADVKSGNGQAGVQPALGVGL
Kind of assay: FLIPR calcium flux assay in cells expressing human adenosine A2B receptors. As to conditions: expressed human adenosine A2B receptors in mammalian cell lines, from dose response curves, read-out: Activity (IC50 activity range). Format: cell-based. How it is done:
The use of a Fluorometric Imaging Plate Reader (FLIPR) to measure calcium flux in Adenosine-receptor expressing cells is a well-established technique. In this assay calcium flux is triggered by receptor activation and measured through the fluorescence of an incorporated calcium-sensitive dye. The potencies shown were determined using expressed human adenosine A2B receptors in mammalian cell lines. Selectivity values were obtained by using mammalian cell lines expressing the human adenosine A1, A2A and A3 receptors. Compound potency was determined from dose response curves and are reported as IC50 values.
(In general: Calcium assays in cells follow changes in intracellular calcium, usually with a dye or a luminescent sensor.)

This passage reports IC50 results from US20100305143A1, “PYRROLOPYRIMIDINE COMPOUNDS” (VERNALIS (R & D) LTD., priority 2007, published 2010).

With `Cc1ccc(C(=O)c2nc(NCc3ccncc3)nc3c2ccn3C)s1` [Example 10, {7-Methyl-2-[(pyridin-4-ylmethyl)-amino]-7H-pyrrolo[2,3-d]pyrimidin-4-yl}-(5-methyl-thiophen-2-yl)-methanone], the IC50 is more than 500 nM.

As for `COc1ccccc1-c1cn(C)c2nc(NCc3cccnc3)nc(C(=O)c3cccs3)c12` [Example 29, {5-(2-Methoxy-phenyl)-7-methyl-2-[(pyridin-3-ylmethyl)-amino]-7H-pyrrolo[2,3-d]pyrimidin-4-yl}-thiophen-2-yl-methanone], the IC50 was more than 500 nM.

For `Cn1cc(-c2ccc(S(C)(=O)=O)cc2)c2c(C(=O)c3cccs3)nc(NCc3cccnc3)nc21` [Example 27, {5-(4-Methanesulfonyl-phenyl)-7-methyl-2-[(pyridin-3-ylmethyl)-amino]-7H-pyrrolo[2,3-d]pyrimidin-4-yl}-thiophen-2-yl-methanone], the IC50 was more than 500 nM.

Turning to `O=C(c1cccs1)c1nc(NCc2cccnc2)nc2c1ccn2Cc1ccccc1` [Example 18, {7-Benzyl-2-[(pyridin-3-ylmethyl)-amino]-7H-pyrrolo[2,3-d]pyrimidin-4-yl}-thiophen-2-yl-methanone], the IC50 was more than 500 nM.

With `CCCCCn1ccc2c(C(=O)c3cccs3)nc(NCc3cccnc3)nc21` [Example 19, {7-Pentyl-2-[(pyridin-3-ylmethyl)-amino]-7H-pyrrolo[2,3-d]pyrimidin-4-yl}-thiophen-2-yl-methanone], the IC50 is more than 500 nM.

Turning to `COc1ccc(-c2cn(C)c3nc(NCc4cccnc4)nc(C(=O)c4cccs4)c23)cc1` [Example 28, {5-(4-Methoxy-phenyl)-7-methyl-2-[(pyridin-3-ylmethyl)-amino]-7H-pyrrolo[2,3-d]pyrimidin-4-yl}-thiophen-2-yl-methanone], the IC50 is more than 500 nM.

For `CCCn1ccc2c(C(=O)c3cccs3)nc(NCc3cccnc3)nc21` [Example 21, {7-Propyl-2-[(pyridin-3-ylmethyl)-amino]-7H-pyrrolo[2,3-d]pyrimidin-4-yl}-thiophen-2-yl-methanone], the IC50 is more than 500 nM.

Take `CC(Nc1nc(C(=O)c2cccs2)c2ccn(C)c2n1)c1cccnc1` (centres unmarked) [Example 7, [7-Methyl-2-(1-pyridin-3-yl-ethylamino)-7H-pyrrolo[2,3-d]pyrimidin-4-yl]-thiophen-2-yl-methanone]: the IC50 was less than 500 nM.

`O=C(c1cccs1)c1nc(Cl)nc2c1ccn2Cc1ccccc1` [Example 17, (7-Benzyl-2-chloro-7H-pyrrolo[2,3-d]pyrimidin-4-yl)-thiophen-2-yl-methanone]: the IC50 is more than 500 nM.

Take `O=C(c1cccs1)c1nc(Cl)nc2[nH]ccc12` [Example 13, (2-Chloro-7H-pyrrolo[2,3-d]pyrimidin-4-yl)-thiophen-2-yl-methanone]: the IC50 was more than 500 nM.

In the case of `Cc1ccc(C(=O)c2nc(NCc3ccccn3)nc3c2ccn3C)s1` [Example 9, {7-Methyl-2-[(pyridin-2-ylmethyl)-amino]-7H-pyrrolo[2,3-d]pyrimidin-4-yl}-(5-methyl-thiophen-2-yl)-methanone], the IC50 is less than 500 nM.

For the molecule `O=C(c1cccs1)c1nc(NCc2ccccn2)nc2[nH]ccc12` [Example 14, {2-[(Pyridin-2-ylmethyl)-amino]-7H-pyrrolo[2,3-d]pyrimidin-4-yl}-thiophen-2-yl-methanone], the IC50 was more than 500 nM.

As to `Cc1ccc(C(=O)c2nc(NCc3cccnc3)nc3c2ccn3C)s1` [Example 8, {7-Methyl-2-[(pyridin-3-ylmethyl)-amino]-7H-pyrrolo[2,3-d]pyrimidin-4-yl}-(5-methyl-thiophen-2-yl)-methanone], the IC50 was less than 500 nM.

`Cn1c(Cl)cc2c(C(=O)c3cccs3)nc(Cl)nc21` [Example 39, (2,6-Dichloro-7-methyl-7H-pyrrolo[2,3-d]pyrimidin-4-yl)-thiophen-2-yl-methanone]: the IC50 is less than 500 nM.

Regarding `Cn1cc(-c2ccccc2)c2c(C(=O)c3cccs3)nc(NCc3cccnc3)nc21` [Example 26, {7-Methyl-5-phenyl-2-[(pyridin-3-ylmethyl)-amino]-7H-pyrrolo[2,3-d]pyrimidin-4-yl}-thiophen-2-yl-methanone], the IC50 was more than 500 nM.

Turning to `Cn1c(Cl)cc2c(C(=O)c3cccs3)nc(NCc3cccnc3)nc21` [Example 40, {6-Chloro-7-methyl-2-[(pyridin-3-ylmethyl)-amino]-7H-pyrrolo[2,3-d]pyrimidin-4-yl}-thiophen-2-yl-methanone], the IC50 is more than 500 nM.

As to `O=C(c1cccs1)c1nc(NCc2cccnc2)nc2c1ccn2CC1CC1` [Example 20, {7-Cyclopropylmethyl-2-[(pyridin-3-ylmethyl)-amino]-7H-pyrrolo[2,3-d]pyrimidin-4-yl}-thiophen-2-yl-methanone], the IC50 was more than 500 nM.

Regarding `Cn1c(Br)cc2c(C(=O)c3cccs3)nc(Cl)nc21` [Example 35, (6-Bromo-2-chloro-7-methyl-7H-pyrrolo[2,3-d]pyrimidin-4-yl)-thiophen-2-yl-methanone], the IC50 was less than 500 nM.

Turning to `Cn1ccc2c(C(=O)c3cccs3)nc(NCc3cccnc3)nc21` [Example 6, {7-Methyl-2-[(pyridin-3-ylmethyl)-amino]-7H-pyrrolo[2,3d]pyrimidin-4-yl}-thiophen-2-yl-methanone], the IC50 is less than 500 nM.

`Cn1cc(Br)c2c(C(=O)c3cccs3)nc(NCc3cccnc3)nc21` [Example 25, {5-Bromo-7-methyl-2-[(pyridin-3-ylmethyl)-amino]-7H-pyrrolo[2,3-d]pyrimidin-4-yl}-thiophen-2-yl-methanone]: the IC50 is more than 500 nM.

As usually defined, the IC50 is the point on the concentration scale where inhibition reaches its midpoint.
